Experimental data published in PMC2649369 (The Journal of neuroscience : the official journal of the …, 2007).

Tests used:
[1] = tested on: GABAA receptors with phenylalanine mutations at β2Tyr157 and β2Tyr205; conditions: phenylalanine mutants vs unmutated; ref Amin and Weiss, 1993; cited from earlier work
[2] = molecular target: GABAA receptor α1Phe64 (α1Phe65 by human numbering) to Leu mutant; conditions: cited from earlier work
[3] = tested on: α1 65-3,4,5-F3-Phe β2 GABAA receptor; experiment: GABA concentration-response, voltage-clamp in oocytes, α1 65-3,4,5-F3-Phe; format: cell-based, human
[4] = tested on: α1β2 157-3,5-F2-Phe GABAA receptor; experiment: GABA concentration-response, voltage-clamp in oocytes, β2 157-3,5-F2-Phe; format: cell-based, human
[5] = tested on: α1β2 97-3,4,5-F3-Phe GABAA receptor; experiment: GABA concentration-response, voltage-clamp in oocytes, β2 97-3,4,5-F3-Phe; format: cell-based, human
[6] = tested on: α1β2 157-4-Me-Phe GABAA receptor; experiment: GABA concentration-response, voltage-clamp in oocytes, β2 157-4-Me-Phe; format: cell-based, human
[7] = tested on: α1β2 97-3,5-F2-Phe GABAA receptor; experiment: GABA concentration-response, voltage-clamp in oocytes, β2 97-3,5-F2-Phe; format: cell-based, human
[8] = tested on: α1β2 205-4-F-Phe GABAA receptor; experiment: GABA concentration-response, voltage-clamp in oocytes, β2 205-4-F-Phe; format: cell-based, human
[9] = tested on: α1β2 157-3,4,5-F3-Phe GABAA receptor; experiment: GABA concentration-response, voltage-clamp in oocytes, β2 157-3,4,5-F3-Phe; format: cell-based, human
[10] = tested on: α1β2 205-3,5-F2-Phe GABAA receptor; experiment: GABA concentration-response, voltage-clamp in oocytes, β2 205-3,5-F2-Phe; format: cell-based, human
[11] = tested on: α1β2 205-3,4,5-F3-Phe GABAA receptor; experiment: GABA concentration-response, voltage-clamp in oocytes, β2 205-3,4,5-F3-Phe; format: cell-based, human

For `CCCC(C)C1(CC)C(=O)NC(=O)NC1=O` (centres unmarked) [pentobarbital], the “functional response on activation of the receptors” value [1] is listed as “no change in functional response”.
In the case of `CN1CCc2cc3c(cc2[C@H]1[C@@H]1OC(=O)c2c1ccc1c2OCO1)OCO3` [bicuculline], the “change of IC50 on mutation” value [2] is listed as “increasing by similar amounts”.
For `NCCCC(=O)O` [GABA], the “nH (Hill coefficient)” value [3] was 1.5, the “nH (Hill coefficient)” value [4] was 2.0 and the “nH (Hill coefficient)” value [5] was 1.9. The “nH (Hill coefficient)” value [6] was 0.8, the “nH (Hill coefficient)” value [7] was 1.1 and the “nH (Hill coefficient)” value [8] was 1.9. For the same compound, the “nH (Hill coefficient)” value [9] was 1.7, the “nH (Hill coefficient)” value [10] was 1.9 and the “nH (Hill coefficient)” value [11] was 2.5.
